Measurements reported in article PMC3606385 (PLoS ONE, 2013).
Entries after “also recorded” stand apart in the source; their conditions may differ. Read-outs that look alike come from different tables or passages of the source. Blank lines part the entries; values can stand above or below the compound they belong to.

Columns and labels:
Human 11β-HSD1 [1] = target: T1, Human 11β-HSD1 (Homo sapiens, UniProt P28845); conditions: cited from earlier work
T1 construct: expressed in transfected cells; host or cells: CHOP cells (transient, FuGENE)
T1 sequence (P28845 whole entry): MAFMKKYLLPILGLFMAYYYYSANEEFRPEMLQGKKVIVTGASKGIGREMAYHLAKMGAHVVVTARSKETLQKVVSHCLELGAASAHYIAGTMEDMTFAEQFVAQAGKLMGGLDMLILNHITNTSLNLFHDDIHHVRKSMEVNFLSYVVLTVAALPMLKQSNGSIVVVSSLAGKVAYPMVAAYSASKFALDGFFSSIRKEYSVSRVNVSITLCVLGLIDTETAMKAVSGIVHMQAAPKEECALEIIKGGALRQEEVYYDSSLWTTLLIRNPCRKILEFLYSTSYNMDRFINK

mouse 11β-HSD1 = conditions: cited from earlier work
Human 11β-HSD2 [2] = target: T2, Human 11β-HSD2 (Homo sapiens, UniProt P80365); conditions: cited from earlier work
T2 construct: The rat and human kidney microsomes were used for 11β-HSD2 sources; tissue Gentest (Woburn, MA); host or cells: human kidney microsomes
T2 sequence (P80365 1-405): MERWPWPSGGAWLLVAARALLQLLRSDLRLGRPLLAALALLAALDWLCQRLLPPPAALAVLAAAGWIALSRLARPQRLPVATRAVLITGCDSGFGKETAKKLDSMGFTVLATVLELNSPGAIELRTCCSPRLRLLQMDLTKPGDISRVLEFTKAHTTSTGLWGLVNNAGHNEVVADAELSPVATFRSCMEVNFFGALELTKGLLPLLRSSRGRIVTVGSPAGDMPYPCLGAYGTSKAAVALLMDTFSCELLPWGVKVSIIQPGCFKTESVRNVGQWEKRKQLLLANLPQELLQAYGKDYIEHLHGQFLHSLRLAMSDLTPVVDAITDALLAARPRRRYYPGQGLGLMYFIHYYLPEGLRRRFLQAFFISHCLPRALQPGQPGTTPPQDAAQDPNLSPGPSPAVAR

mouse 11β-HSD2 = test system: mouse 11β-HSD2; design: method as in PMID 16103409; conditions: cited from earlier work
human liver 11β-HSD1 = target: T3, human liver 11β-HSD1 (Homo sapiens, UniProt P28845); assay: Mode of inhibition, human liver 11β-HSD1; assay type: biochemical; conditions: data not shown
T3 construct: tissue Gentest (Woburn, MA); host or cells: human liver microsomes
T3 sequence (P28845 whole entry): as the sequence (P28845 whole entry) above
Method: (§1) The rat testis and liver or human liver microsomes were used for 11β-HSD1 assay. 11β-HSD1 activity was performed in the microsome according to a previously described method. In brief, the assay tubes contained 25 nM substrate 11DHC (for rat) or cortisone (for human), spiked with 30,000 cpm their respective ^3H-11keto-steroid, 0.2 mM NADPH and 5 mM glucose-6-phosphaare in the PBS buffer. 2 µg microsomes were added to each tube to initiate the reaction and the reaction mixture was incubated for up to 2 hrs, during which the reaction is within the linear range. The rest procedure was similar to 11β-HSD1 assay in intact cells.
(§2) The IC50 was determined by adding different concentrations of each compound in the 11β-HSD1 or 11β-HSD2 reaction as described. The mode of inhibition was assayed by adding various concentrations of steroid substrates in the presence of an inhibitor as described.
(§3) Enzyme data were subjected to nonlinear analysis by GraphPad (Version 5, GraphPad Software Inc., San Diego, CA) for IC50. Lineweaver-Burk plot was used for the mode of inhibition. Data were subjected to analysis by one-way ANOVA followed by Tukey's multiple comparisons testing to identify significant differences between groups when three were calculated. Differences were regarded as significant at P<0.05.

Human 11β-HSD1 [3] = target: T1, Human 11β-HSD1; assay: 11β-HSD1 assay in intact CHOP cells transfected with human HSD11B1; assay type: cell-based
Method: An expression plasmid was constructed to express human 11β-HSD1 (HSD11B1) cDNA in pcDNA I expression vector from its original human HSD11B1 vector (pBluescriptSK+).[15]. The Escherichia coli transformants carrying an insert were selected by colony hybridization, and a clone with the insert in the correct orientation relative to the vector T7 promoter was identified by restriction mapping. All transfections were carried out on 80% confluent cultures in 12-well plates. Aliquots of 1 µg HSD11B1 pcDNA I were transfected into mammalian CHOP cells with the FuGENE Transfection Reagent (Roche) according to manufacturer's protocol. Cells were allowed to grow for 24 hours in media containing 10% fetal bovine serum. Then media were removed and cells were harvested for 11β-HSD1 activity assay.
(§4) 11β-HSD1 reductase activity was performed in intact cells using endogenous cofactor NADPH as described previously. […] 25×10^3 cells were added to each tube to initiate the reaction and the reaction mixture was incubated for up to 2 hrs, during which the reaction is within the linear range. At the end of reaction, the reaction was stopped by adding 2 ml ice-cold ether. The steroids were extracted, and the organic layer was dried under nitrogen. The steroids were separated chromatographically on thin layer plates in chloroform and methanol (90∶10, v/v), and the radioactivity was measured using a scanning radiometer (System AR2000, Bioscan Inc., Washington, DC) as described previously. The percentage conversion of 11DHC to CORT or cortisone to cortisol was calculated by dividing the radioactive counts identified as 11-OH-steroids by the total counts.
as §2

Rat 11β-HSD1 = target: T4, Rat 11β-HSD1 (Rattus norvegicus, UniProt P16232); assay: 11β-HSD1 assay in intact rat Leydig cells; assay type: cell-based; conditions: intact rat Leydig cells
T4 construct: endogenous in cells; host or cells: primary adult Sprague-Dawley rat Leydig cells
T4 sequence (P16232 whole entry): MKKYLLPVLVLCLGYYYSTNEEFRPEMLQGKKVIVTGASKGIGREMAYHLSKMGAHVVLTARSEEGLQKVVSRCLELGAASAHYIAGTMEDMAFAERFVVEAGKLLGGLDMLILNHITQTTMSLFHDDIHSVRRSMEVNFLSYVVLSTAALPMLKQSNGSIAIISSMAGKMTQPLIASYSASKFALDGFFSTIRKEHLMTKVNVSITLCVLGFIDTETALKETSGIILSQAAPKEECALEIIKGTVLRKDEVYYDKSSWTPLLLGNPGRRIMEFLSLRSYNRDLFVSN
Method: Rat Leydig cells contain the highest 11β-HSD1 activity in all cell types of rat tissues, and were used for rat 11β-HSD1 enzyme sources. Purified rat Leydig cells were obtained from 90-day-old Sprague-Dawley rats by collagenase digestion of the testes followed by Percoll density centrifugation of the cell suspension, according to the previously described method. […] The purity of cell fractions was evaluated by histochemical staining for 3β-hydroxysteroid dehydrogenase activity with […] etiocholanolone as the steroid substrate.
as §4, §2

Human 11β-HSD2 [4] = target: T2, Human 11β-HSD2; assay: 11β-HSD2 assay in human kidney microsomes; assay type: biochemical
Method: (§5) The rat and human kidney microsomes were used for 11β-HSD2 sources. 11β-HSD2 activity was performed in the microsome according to a previously described method. In brief, the assay tubes contained 25 nM substrate CORT (for rat) or cortisol (for human), spiked with 30,000 cpm their respective ^3H-11β-hydroxyl steroid, 0.2 mM NAD+ and 0.1 mM DTT in the PBS buffer. 8 (rat) or 20 (human) µg kidney microsomes were added to each tube to initiate the reaction and the reaction mixture was incubated for up to 3 hrs, during which the reaction is within the linear range. The rest procedure was similar to 11β-HSD1 assay. The percentage conversion of CORT to 11DHC or cortisol to cortisone was calculated by dividing the radioactive counts identified as 11keto-steroids by the total counts.
as §2

[5] = target: T5, rat liver microsomal 11β-HSD1 (Rattus norvegicus, UniProt P16232); assay: Mode of inhibition (Lineweaver-Burk), rat liver microsomal 11β-HSD1; assay type: biochemical; conditions: Lineweaver-Burk plot, substrate 11DHC
T5 construct: Rat liver, testis and kidney microsomes were prepared as described previously; from tissue; host or cells: rat liver microsomes
T5 sequence (P16232 whole entry): as above
Method: as §1, §2, §3

Rat 11β-HSD2 = target: T6, Rat 11β-HSD2 (Rattus norvegicus, UniProt P50233); assay: 11β-HSD2 assay in rat kidney microsomes; assay type: biochemical
T6 construct: from tissue; host or cells: rat kidney microsomes
T6 sequence (P50233 1-400): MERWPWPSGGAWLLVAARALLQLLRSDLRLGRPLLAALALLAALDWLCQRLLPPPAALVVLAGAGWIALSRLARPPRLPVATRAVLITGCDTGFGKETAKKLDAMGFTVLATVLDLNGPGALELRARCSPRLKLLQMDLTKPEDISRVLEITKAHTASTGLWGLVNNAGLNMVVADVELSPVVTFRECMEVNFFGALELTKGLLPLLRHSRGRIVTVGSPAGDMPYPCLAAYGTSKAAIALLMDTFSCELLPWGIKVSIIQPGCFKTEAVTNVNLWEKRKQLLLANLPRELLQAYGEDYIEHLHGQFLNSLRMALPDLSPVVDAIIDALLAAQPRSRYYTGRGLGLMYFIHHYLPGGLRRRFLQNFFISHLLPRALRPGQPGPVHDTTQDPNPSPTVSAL
Method: Rats were euthanized by CO2, and livers, testes and kidneys were collected. Rat liver, testis and kidney microsomes were prepared as described previously. In brief, rat liver and kidney were homogenized in […] PBS buffer containing 0.25 M sucrose, and nuclei and large cell debris were removed by centrifugation at 1500× g for 10 min. The post-nuclear supernatants were centrifuged twice at 105,000×g, the resultant microsomal pellets were resuspended. Protein contents were measured by Bio-Rad Dye Reagent Concentrate (Cat.#500-0006). Microsomes were used for measurement of 11β-HSD1 and 11β-HSD2 activities.
as §5, with “In brief, the assay tubes contained 25 nM substrate CORT (for rat) or cortisol (for human), spiked with 30,000 cpm their respective ^3H-11β-hydroxyl steroid, 0.2 mM NAD+ and 0.1 mM DTT in the PBS buffer.” left out
as §2

hyperglycemic KKAy mouse = test system: hyperglycemic KKAy mouse; design: method as in PMID 12190302; conditions: hyperglycemic KKAy mouse model; cited from earlier work

Compound: C1CCc2nnc(C34CC5CC(CC(C5)C3)C4)n2CC1 [MK544]
- IC50 (Human 11β-HSD1 [1]): 7.8 nM
- IC50 (mouse 11β-HSD1): 98 nM
- Selectivity over human 11β-HSD2 (Human 11β-HSD2 [2]): > 450 fold
- Selectivity over mouse 11β-HSD2 (mouse 11β-HSD2): > 100 fold

- Human 11β-HSD1 Potency to Curcumin (fold) (Human 11β-HSD1 [3]; CHOP cells transfected with human HSD11B1, relative to curcumin): 24.68 fold
- IC50 (Human 11β-HSD1 [3]; CHOP cells transfected with human HSD11B1, read-out: Human 11β-HSD1 IC50 (nM) in CHOP cells): 93 nM
- Rat 11β-HSD1 Potency to Curcumin (fold) (Rat 11β-HSD1; relative to curcumin): 31.44 fold
- IC50 (Rat 11β-HSD1; read-out: Rat 11β-HSD1 IC50 (nM) in Leydig cells): 184 nM
- Inhibition of human 11β-HSD2 at 100 µM (Human 11β-HSD2 [4]; 100 µM): did not inhibit
- IC50 (Human 11β-HSD2 [4]; human kidney microsomes, read-out: IC50 (nM) Human 11β-HSD2): > 100000 nM
- Inhibition of rat 11β-HSD2 at 100 µM (Rat 11β-HSD2; 100 µM): did not inhibit
- IC50 (Rat 11β-HSD2; rat kidney microsomes): > 100000 nM
Compound: O=C(/C=C/c1cccs1)/C=C/c1cccs1 [compound 6, (1E,4E)-1,5-bis(thiophen-2-yl) penta-1,4-dien-3-one]
- Mode of inhibition of human 11β-HSD1 (human liver 11β-HSD1): same mode; also recorded: competitive inhibitor
- Mode of inhibition of rat 11β-HSD1 [5]: competitive mode; also recorded: competitive inhibitor

Compound: BVT2733
- IC50 (mouse 11β-HSD1; mouse enzyme): 96 nM
- Effect on blood glucose level (hyperglycemic KKAy mouse): significantly lowered
